This experiment concerns the target T1, Amylin 3(a) receptor (human calcitonin receptor (CTa) and RAMP-3) (Homo sapiens, UniProt O60896+P30988).
T1 construct: expressed in transfected cells; host or cells: BHK570 cells, stably transfected with a CRE-luciferase reporter
Kind of experiment: Luciferase assay (III), BHK Amylin 3(a)//CRE-luc cells. It is filed as cell-based. The note with it: BHK cells with Amylin 3(a) receptor and CRE luciferase reporter, 4 hours incubation; read-out: Potency Luciferase. The source says:
It has previously been published (Poyner D R et al 2002, Pharmacological Reviews 54(2) 233-246) that activation of Amylin receptors (coexpression of Calcitonin receptor and receptor activity modifying peptides RAMPs) by Amylin leads to an increase in the intracellular concentration of cAMP. Consequently, transcription is activated at promoters containing multiple copies of the cAMP response element (CRE). It is thus possible to measure Amylin activity by use of a CRE luciferase reporter gene introduced into BHK cells also expressing an Amylin receptor.
2. Construction of an Amylin 3(a)/CRE-luc Cell Line
A BHK570 cell line stably transfected with the human calcitonin receptor (CTa) and a CRE-responsive luciferase reportergene. The cell line was further transfected with RAMP-3, using standard methods. This turns the Calcitonin receptor into an Amylin 3(a) receptor. Methotrexate, Neomycin, and Hygromycin are selection markers for luciferase, the Calcitonin receptor, and RAMP-3, respectively.
3. Amylin Luciferase Assay
To perform activity assays, BHK Amylin 3(a)//CRE-luc cells were seeded in white 96 well culture plates at a density of about 20,000 cells/well. The cells were in 100 μl growth medium (DMEM with 10% FBS, 1% Pen/Strep, 1 mM Na-pyruvate, 250 nM Methotrexate, 500 μg/ml Neomycin, and 400 μg/ml Hygromycin). After incubation overnight at 37° C. and 5% CO2, the growth medium was replaced by 50 μl/well assay medium (DMEM (without phenol red), Glumamax™, 10% FBS, and 10 mM Hepes, pH 7,4). Further, 50 μl/well of standard or sample in assay buffer were added. After 4 hours incubation at 37° C. and 5% CO2, the assay medium with standard or sample were removed and replaced by 100 μl/well PBS. Further, 100 μl/well LucLite™ was added. The plates were sealed and incubated at room temperature for 30 minutes. Finally, luminescence was measured on a TopCounter (Packard) in SPC (single photon counting) mode.

pEC50: −log10 of the molar value. Where a SMILES comes first, the peptide text is derived from it. Bridges are numbered along the chain shown (N, C = ends). The star is where a group is joined. C20 diacid = O=C(O)CCCCCCCCCCCCCCCCCCC(=O)*

T1 sequence (O60896 24-148): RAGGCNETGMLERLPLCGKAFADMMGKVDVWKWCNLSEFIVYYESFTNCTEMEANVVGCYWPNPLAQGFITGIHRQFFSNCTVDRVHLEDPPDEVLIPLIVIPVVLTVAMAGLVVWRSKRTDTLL
T1 sequence (P30988 25-474): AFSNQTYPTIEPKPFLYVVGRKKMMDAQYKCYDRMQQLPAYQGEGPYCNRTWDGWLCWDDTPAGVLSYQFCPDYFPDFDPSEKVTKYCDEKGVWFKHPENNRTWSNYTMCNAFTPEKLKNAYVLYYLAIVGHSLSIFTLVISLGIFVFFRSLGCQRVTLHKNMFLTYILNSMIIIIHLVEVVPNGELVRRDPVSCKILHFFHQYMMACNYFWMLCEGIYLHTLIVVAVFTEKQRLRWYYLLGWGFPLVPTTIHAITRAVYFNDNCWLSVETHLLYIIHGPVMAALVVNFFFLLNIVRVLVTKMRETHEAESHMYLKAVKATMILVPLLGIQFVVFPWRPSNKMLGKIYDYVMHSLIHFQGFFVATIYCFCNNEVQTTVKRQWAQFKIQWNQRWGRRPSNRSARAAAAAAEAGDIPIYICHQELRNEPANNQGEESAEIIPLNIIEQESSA

`CC[C@H](C)[C@H](NC(=O)[C@@H]1CCCN1C(=O)CNC(=O)[C@H](Cc1ccccc1)NC(=O)[C@H](CC(N)=O)NC(=O)[C@H](CC(N)=O)NC(=O)[C@H](CO)NC(=O)[C@H](CO)NC(=O)[C@H](Cc1c[nH]cn1)NC(=O)[C@H](Cc1c[nH]cn1)NC(=O)[C@H](CC(C)C)NC(=O)[C@H](Cc1ccccc1)NC(=O)[C@H](CC(N)=O)NC(=O)[C@H](C)NC(=O)[C@H](CC(C)C)NC(=O)[C@H](CCCNC(=N)N)NC(=O)[C@H](CCC(N)=O)NC(=O)[C@@H](NC(=O)[C@H](C)NC(=O)[C@@H]1CSSC[C@H](NC(=O)[C@H](CCCNC(=N)N)NC(=O)[C@H](CCCCN)NC(=O)[C@H](CCC(=O)O)NC(=O)CCCCCCCCCCCCCCCCCCC(=O)O)C(=O)N[C@@H](CC(N)=O)C(=O)N[C@@H]([C@@H](C)O)C(=O)N[C@@H](C)C(=O)N[C@@H]([C@@H](C)O)C(=O)N1)[C@@H](C)O)C(=O)N[C@@H](CC(C)C)C(=O)N1CCC[C@H]1C(=O)N1CCC[C@H]1C(=O)N[C@H](C(=O)N[C@@H](CC(N)=O)C(=O)N[C@H](C(=O)NCC(=O)N[C@@H](CO)C(=O)N[C@@H](CC(N)=O)C(=O)N[C@H](C(=O)N[C@@H](Cc1ccc(O)cc1)C(N)=O)[C@@H](C)O)C(C)C)[C@@H](C)O` [Example 8, N-alpha-[19-carboxynonadecanoyl]-Glu-Lys-[Arg1,His17]-pramlintide] ({C20 diacid}-EKRCNTATCATQRLANFLHHSSNNFGPILPPTNVGSNTY-NH2; disulfide 4-9): the pEC50 was 10.15.

Regarding `CC[C@H](C)[C@H](NC(=O)[C@@H]1CCCN1C(=O)CNC(=O)[C@H](Cc1ccccc1)NC(=O)[C@H](CC(N)=O)NC(=O)[C@H](CC(N)=O)NC(=O)[C@H](CO)NC(=O)[C@H](CO)NC(=O)[C@H](Cc1c[nH]cn1)NC(=O)[C@H](Cc1c[nH]cn1)NC(=O)[C@H](CC(C)C)NC(=O)[C@H](Cc1ccccc1)NC(=O)[C@H](CC(N)=O)NC(=O)[C@H](C)NC(=O)[C@H](CC(C)C)NC(=O)[C@H](CCCNC(=N)N)NC(=O)[C@H](CCC(N)=O)NC(=O)[C@@H](NC(=O)[C@H](C)NC(=O)[C@@H]1CSSC[C@H](NC(=O)[C@H](CCCCN)NC(=O)[C@H](CCCNC(=N)N)NC(=O)[C@H](CCCCN)NC(=O)[C@H](CCC(=O)O)NC(=O)CCCCCCCCCCCCCCCCCCC(=O)O)C(=O)N[C@@H](CC(N)=O)C(=O)N[C@@H]([C@@H](C)O)C(=O)N[C@@H](C)C(=O)N[C@@H]([C@@H](C)O)C(=O)N1)[C@@H](C)O)C(=O)N[C@@H](CC(C)C)C(=O)N1CCC[C@H]1C(=O)N1CCC[C@H]1C(=O)N[C@H](C(=O)N[C@@H](CC(N)=O)C(=O)N[C@H](C(=O)NCC(=O)N[C@@H](CO)C(=O)N[C@@H](CC(N)=O)C(=O)N[C@H](C(=O)N[C@@H](Cc1ccc(O)cc1)C(N)=O)[C@@H](C)O)C(C)C)[C@@H](C)O` [Example 9, N-alpha-[19-carboxynonadecanoyl]-Glu-Lys-Arg-[His17]-pramlintide] ({C20 diacid}-EKRKCNTATCATQRLANFLHHSSNNFGPILPPTNVGSNTY-NH2; disulfide 5-10), the pEC50 was 10.22.
